Data from US11046716B2, “Beta-lactamase inhibitors” (priority 2015, dated 2021).

Legend:
SHV-5 = molecular target: T1, SHV-5 (Klebsiella pneumoniae, UniProt P0A3M1); assay: β-lactamase enzyme inhibition assay, SHV-5 (cefotaxime substrate); format: biochemical
T1 construct: made in house; host or cells: E. coli BL21(DE3)
Outline: (§1)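 Compounds are mixed with purified, untagged recombinant β-lactamase and held 15 min at 37 °C. Substrate is then added: nitrocefin (100 μM final) for OXA-1, imipenem for KPC-2, cefotaxime for SHV-5. Absorbance is followed immediately, and percent inhibition per concentration gives the IC50.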

KPC-2 = molecular target: T2, KPC-2 (Klebsiella pneumoniae, UniProt Q9F663); assay: β-lactamase enzyme inhibition assay, KPC-2 (imipenem substrate); format: biochemical; conditions: Class A; imipenem substrate, 300 nm; read-out: KPC-2
T2 construct: made in house; host or cells: E. coli BL21(DE3)
Outline: as §1

VIM-2 = molecular target: T3, VIM-2 (Escherichia coli, UniProt Q5U7L7); assay: β-lactamase enzyme inhibition assay, VIM-2 (nitrocefin substrate); format: biochemical; conditions: Class B; nitrocefin substrate, 486 nm; read-out: VIM-2
T3 construct: made in house; host or cells: E. coli BL21(DE3)
Outline: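 First, VIM-2 purified by repeated anion exchange at pH 7.5 is mixed with inhibitor and held 15 min at 37 °C. Next, nitrocefin (final 100 μM) is dispensed and absorbance at 486 nm monitored immediately for 10 min. Rates versus uninhibited controls give IC50.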

AmpC = molecular target: T4, AmpC (Enterobacter cloacae, UniProt P05364); assay: β-lactamase enzyme inhibition assay, p99 AmpC (nitrocefin substrate); format: biochemical
T4 construct: made in house; host or cells: E. coli BL21(DE3)
Outline: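 Compounds are mixed with purified, untagged recombinant β-lactamase and held 15 min at 37 °C. Substrate is then added. Absorbance is followed immediately, and percent inhibition per concentration gives the IC50.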

OXA-48 = OXA-48 (UniProt Q6XEC0); assay: β-lactamase enzyme inhibition assay, Class D oxacillinase; format: biochemical; conditions: read-out: OXA-48
[1] = tested on: E. coli expressing the Class A Extended Spectrum Beta-Lactamase (ESBL) CTX-M-15; assay: Broth microdilution MIC assay with ceftazidime, E. coli CTX-M-15; format: cell-based; conditions: Fixed CAZ (ceftazidime) 4 μg/mL; E. coli ESBL4 CTX-M-15
Outline: (§2)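 Strains grown 3-5 hours in CAMHB are inoculated by the CLSI broth microdilution method onto compound dilutions (16 to 0.125 μg/mL) overlaid with β-lactam at 4 μg/ml final. After 16-20 hours at 37° C, the lowest compound concentration inhibiting growth is taken as the MIC.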

[2] = tested on: E. cloacae expressing the Class C P99; assay: Broth microdilution MIC assay with ceftazidime, E. cloacae P99; format: cell-based; conditions: Fixed CAZ (ceftazidime) 4 μg/mL; E. cl. 144200 p99 AmpC
Outline: as §2

[3] = tested on: K. pneumoniae expressing the Class A carbapenemase KPC-2; assay: Broth microdilution MIC assay with meropenem, K. pneumoniae KPC-2; format: cell-based; conditions: Fixed Mero (meropenem) 4 μg/mL; K. p. 156319 KPC-3
Outline: as §2

[4] = tested on: P. aeruginosa expressing the Class B carbapenemase VIM-2; assay: Broth microdilution MIC assay with meropenem, P. aeruginosa VIM-2; format: cell-based; conditions: Fixed Mero (meropenem) 4 μg/mL; P. aerug. 2775 VIM-2
Outline: as §2

[5] = tested on: K. pneumoniae expressing the class A carbapenemase KPC-2 and the class B carbapenemase VIM-4; assay: Broth microdilution MIC assay with meropenem, K. pneumoniae KPC-2 and VIM-4; format: cell-based; conditions: Fixed Mero (meropenem) 4 μg/mL; K. p. A-1797 KPC-2 VIM-4
Outline: as §2

[6] = tested on: K. pneumoniae producing the Class D carbapenemase OXA-48; assay: Broth microdilution MIC assay with meropenem, K. pneumoniae OXA-48; format: cell-based; conditions: Fixed Mero (meropenem) 4 μg/mL; K. p. 11978 OXA-48
Outline: as §2

T2 sequence (Q9F663 25-293, looked up): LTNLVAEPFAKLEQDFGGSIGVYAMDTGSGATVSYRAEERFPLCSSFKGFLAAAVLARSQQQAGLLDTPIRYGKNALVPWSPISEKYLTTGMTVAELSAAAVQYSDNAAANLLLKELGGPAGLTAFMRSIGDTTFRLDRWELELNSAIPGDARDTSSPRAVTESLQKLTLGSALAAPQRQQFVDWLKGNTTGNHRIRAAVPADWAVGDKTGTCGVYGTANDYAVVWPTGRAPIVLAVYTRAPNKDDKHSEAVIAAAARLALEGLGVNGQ
T1 sequence (P0A3M1 22-286): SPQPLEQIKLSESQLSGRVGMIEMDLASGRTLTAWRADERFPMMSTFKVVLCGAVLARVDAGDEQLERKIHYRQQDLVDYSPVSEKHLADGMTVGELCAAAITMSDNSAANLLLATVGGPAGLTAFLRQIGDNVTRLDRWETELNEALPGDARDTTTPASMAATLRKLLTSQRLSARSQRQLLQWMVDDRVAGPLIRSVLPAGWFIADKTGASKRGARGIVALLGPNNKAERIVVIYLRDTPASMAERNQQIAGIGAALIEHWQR
T4 sequence (P05364 21-381): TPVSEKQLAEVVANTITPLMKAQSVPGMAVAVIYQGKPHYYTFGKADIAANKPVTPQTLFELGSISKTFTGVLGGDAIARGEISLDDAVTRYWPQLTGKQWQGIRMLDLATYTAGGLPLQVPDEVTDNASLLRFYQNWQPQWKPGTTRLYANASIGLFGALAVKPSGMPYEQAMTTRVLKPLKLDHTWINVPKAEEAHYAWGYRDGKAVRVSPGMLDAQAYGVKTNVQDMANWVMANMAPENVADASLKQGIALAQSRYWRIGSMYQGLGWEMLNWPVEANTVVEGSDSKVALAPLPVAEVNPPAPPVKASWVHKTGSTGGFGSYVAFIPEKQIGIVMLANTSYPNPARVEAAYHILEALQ

Row | SMILES | IC50 (SHV-5) [µM] | IC50 (KPC-2) [µM] | IC50 (VIM-2) [µM] | IC50 (AmpC) [µM] | IC50 (OXA-48) [µM] | MIC (μg/mL) of Exemplary Compounds in presence of fixed β-lactams: E. coli ESBL4 CTX-M-15 [1] | MIC (μg/mL) of Exemplary Compounds in presence of fixed β-lactams: E. cl. 144200 p99 AmpC [2] | MIC (μg/mL) of Exemplary Compounds in presence of fixed β-lactams: K. p. 156319 KPC-3 [3] | MIC (μg/mL) of Exemplary Compounds in presence of fixed β-lactams: P. aerug. 2775 VIM-2 [4] | MIC (μg/mL) of Exemplary Compounds in presence of fixed β-lactams: K. p. A-1797 KPC-2 VIM-4 [5] | MIC (μg/mL) of Exemplary Compounds in presence of fixed β-lactams: K. p. 11978 OXA-48 [6]
1 | NCCNC(=O)c1cn(CC(=O)N[C@H]2Cc3cccc(C(=O)O)c3OB2O)nn1 [Example 37, (R)-3-(2-(4-((2-aminoethyl)carbamoyl)-1H-1,2,3-triazol-1-yl)acetamido)-2-hydroxy-3,4-dihydro-2H-benzo[e][1,2]oxaborinine-8-carboxylic acid] | < 0.1 | < 0.1 | < 0.1 | < 0.1 | 1 to 10 | C (C represents an MIC of <1 μg/mL) | C (C represents an MIC of <1 μg/mL) | B (B represents an MIC between 1 and 16 μg/mL inclusive) | C (C represents an MIC of <1 μg/mL) | C (C represents an MIC of <1 μg/mL) | B (B represents an MIC between 1 and 16 μg/mL inclusive)
2 | CN(C)Cc1nnn(CC(=O)N[C@H]2Cc3cccc(C(=O)O)c3OB2O)c1CN(C)C [Example 38, (R)-3-(2-(4,5-bis((dimethylamino)methyl)-1H-1,2,3-triazol-1-yl)acetamido)-2-hydroxy-3,4-dihydro-2H-benzo[e][1,2]oxaborinine-8-carboxylic acid] | 0.1 to 1 | < 0.1 | 0.1 to 1 | < 0.1 | 0.1 to 1 | B (B represents an MIC between 1 and 16 μg/mL inclusive) | C (C represents an MIC of <1 μg/mL) | B (B represents an MIC between 1 and 16 μg/mL inclusive) | B (B represents an MIC between 1 and 16 μg/mL inclusive) | B (B represents an MIC between 1 and 16 μg/mL inclusive) | B (B represents an MIC between 1 and 16 μg/mL inclusive)
3 | CC(C)(C(=O)N[C@H]1Cc2cccc(C(=O)O)c2OB1O)n1cc(CNC(=N)N)nn1 [Example 39, (R)-3-(2-(4-(guanidinomethyl)-1H-1,2,3-triazol-1-yl)-2-methylpropanamido)-2-hydroxy-3,4-dihydro-2H-benzo[e][1,2]oxaborinine-8-carboxylic acid] | < 0.1 | < 0.1 | < 0.1 | < 0.1 | 0.1 to 1 | C (C represents an MIC of <1 μg/mL) | C (C represents an MIC of <1 μg/mL) | B (B represents an MIC between 1 and 16 μg/mL inclusive) | C (C represents an MIC of <1 μg/mL) | B (B represents an MIC between 1 and 16 μg/mL inclusive) | B (B represents an MIC between 1 and 16 μg/mL inclusive)
4 | O=C(Cc1nnn[nH]1)N[C@H]1Cc2cccc(C(=O)O)c2OB1O [Example 40, (R)-3-(2-(1H-tetrazol-5-yl)acetamido)-2-hydroxy-3,4-dihydro-2H-benzo[e][1,2]oxaborinine-8-carboxylic acid] | < 0.1 | < 0.1 | 1 to 10 | < 0.1 | 0.1 to 1 | C (C represents an MIC of <1 μg/mL) | C (C represents an MIC of <1 μg/mL) | C (C represents an MIC of <1 μg/mL) | B (B represents an MIC between 1 and 16 μg/mL inclusive) | B (B represents an MIC between 1 and 16 μg/mL inclusive) | B (B represents an MIC between 1 and 16 μg/mL inclusive)
5 | NCCn1nnnc1CC(=O)N[C@H]1Cc2cccc(C(=O)O)c2OB1O [Example 41, (R)-3-(2-(1-(2-aminoethyl)-1H-tetrazol-5-yl)acetamido)-2-hydroxy-3,4-dihydro-2H-benzo[e][1,2]oxaborinine-8-carboxylic acid] | < 0.1 | < 0.1 | < 0.1 | < 0.1 | 0.1 to 1 | C (C represents an MIC of <1 μg/mL) | C (C represents an MIC of <1 μg/mL) | C (C represents an MIC of <1 μg/mL) | C (C represents an MIC of <1 μg/mL) | C (C represents an MIC of <1 μg/mL) | B (B represents an MIC between 1 and 16 μg/mL inclusive)
6 | NCCn1nnc(CC(=O)N[C@H]2Cc3cccc(C(=O)O)c3OB2O)n1 [Example 42, (R)-3-(2-(2-(2-aminoethyl)-2H-tetrazol-5-yl)acetamido)-2-hydroxy-3,4-dihydro-2H-benzo[e][1,2]oxaborinine-8-carboxylic acid] | < 0.1 | < 0.1 | < 0.1 | < 0.1 | 0.1 to 1 | C (C represents an MIC of <1 μg/mL) | C (C represents an MIC of <1 μg/mL) | C (C represents an MIC of <1 μg/mL) | C (C represents an MIC of <1 μg/mL) | C (C represents an MIC of <1 μg/mL) | B (B represents an MIC between 1 and 16 μg/mL inclusive)
7 | O=C(Cn1nnnc1CC(=O)N[C@H]1Cc2cccc(C(=O)O)c2OB1O)N[C@H]1CCNC1 [Example 43, (R)-2-hydroxy-3-(2-(1-(2-oxo-2-(((S)-pyrrolidin-3-yl)amino)ethyl)-1H-tetrazol-5-yl)acetamido)-3,4-dihydro-2H-benzo[e][1,2]oxaborinine-8-carboxylic acid] | < 0.1 | < 0.1 | < 0.1 | < 0.1 | 0.1 to 1 | C (C represents an MIC of <1 μg/mL) | C (C represents an MIC of <1 μg/mL) | C (C represents an MIC of <1 μg/mL) | C (C represents an MIC of <1 μg/mL) | B (B represents an MIC between 1 and 16 μg/mL inclusive) | B (B represents an MIC between 1 and 16 μg/mL inclusive)
8 | O=C(Cn1nnc(CC(=O)N[C@H]2Cc3cccc(C(=O)O)c3OB2O)n1)N[C@H]1CCNC1 [Example 44] | < 0.1 | < 0.1 | < 0.1 | < 0.1 | 0.1 to 1 | C (C represents an MIC of <1 μg/mL) | C (C represents an MIC of <1 μg/mL) | B (B represents an MIC between 1 and 16 μg/mL inclusive) | C (C represents an MIC of <1 μg/mL) | B (B represents an MIC between 1 and 16 μg/mL inclusive) | B (B represents an MIC between 1 and 16 μg/mL inclusive)
